The source of these data is paper PMC12061717, “Molecular characterization of a Minus-C odorant-binding protein from Cyrtotrachelus buqueti (Coleoptera: Curculionidae)” (Frontiers in Physiology, 2025).

A word on the Ki: it is a measure of affinity in units of concentration, obtained from inhibition or displacement. For orientation: IC50 means the midpoint of a concentration-inhibition curve.

Assay [1] deals with T1, CbuqOBP1 (Cyrtotrachelus buqueti, UniProt A0A1L3KPS8). Description: Fluorescence competition binding assay with 1-NPN as probe. The following applies: for Ki: K i = [IC50]/(1 + [1-NPN]/K 1-NPN), CbuqOBP1 and 1-NPN both 2 μM, pH 7.4. The method, then: (§1) The fluorescence competition binding assays were carried out with a F-7000 fluorescence spectrophotometer (Hitachi, Tokyo, Japan) at room temperature using a 1 cm wide light-path fluorimeter quartz cuvette and 10 nm slits for both excitation and emission. The purified CbuqOBP1 was dissolved in 50 mM Tris–HCl buffer (pH 7.4) to a final concentration of 2 μM, while all ligands used in binding experiments were dissolved in chromatographic methanol to a final concentration of 1 mM.
T1 sequence (A0A1L3KPS8 entry or part of it): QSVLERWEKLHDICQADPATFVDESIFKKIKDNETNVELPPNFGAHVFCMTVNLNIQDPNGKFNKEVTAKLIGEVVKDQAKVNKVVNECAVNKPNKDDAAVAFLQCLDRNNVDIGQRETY
N-phenyl-1-naphthylamine (1-NPN) (Aladdin Biochemical Technology Co., LTD., Shanghai, China) was used as the fluorescent probe. The probe was excited at 337 nm and emission spectra were recorded between 350 and 550 nm.
Based on the above studies, a total of nine candidate volatiles were selected as test ligands, including eight volatiles emitted by female adults of C. buqueti and the linalool released from the host plant N. affinis (Table 1). All these compounds were purchased from Aladdin Biochemical Technology Co., LTD. (Shanghai, China) with a purity of at least more than 90%. […] Binding data were collected as three independent measurements.

A further assay concerns C. buqueti adults. Details: method as in Cai, 2018. The following applies: previous behavioral studies; ref Cai, 2018; cited from earlier work.
For assay [2], the system named is Xylotrechus rusticus (Coleoptera) adults. The arrangement: method as in Li L. et al., 2013; Chen et al., 2014. Particulars: ref Li L. et al., 2013; Chen et al., 2014; cited from earlier work.
Assay [3] relates to Bradysia odoriphaga (Diptera) adults. The arrangement: method as in Li L. et al., 2013; Chen et al., 2014. Particulars: ref Li L. et al., 2013; Chen et al., 2014; cited from earlier work.
Assay [4] deals with T1, CbuqOBP1. Description: Binding of fluorescent probe 1-NPN to CbuqOBP1 (titration, Scatchard plot). The following applies: 2 μM protein titrated with 1-NPN 2 to 40 μM, read-out: K 1-NPN (dissociation constant of CbuqOBP1/1-NPN complex). As to the method:
as §1
N-phenyl-1-naphthylamine (1-NPN) (Aladdin Biochemical Technology Co., LTD., Shanghai, China) was used as the fluorescent probe. The probe was excited at 337 nm and emission spectra were recorded between 350 and 550 nm. […] Assuming that 1-NPN binds to the protein at a 1:1 ratio and that the protein was 100% active, a Scatchard plot analysis of the binding data was performed to calculate the dissociation constant (K d) of CbuqOBP1 with 1-NPN.

Where [5] appears, read: recombinant CbuqOBP1 and 1-NPN both 2 μM, 50 mM Tris-HCl pH 7.4, room temperature, read-out: IC50.

The structures appear in SMILES notation. Where two headings read alike, the source gives them in different places.

For `CCCCCC(=O)OCC` [Ethyl hexanoate], the inhibitory constant (Ki) on CbuqOBP1 [1] amounted to 19.5 µM. The IC50 on CbuqOBP1 [1] (setting [5]) was 21 µM.

`Cc1cccc(C)c1` [M-xylene]: the IC50 on CbuqOBP1 [1] came to 36 µM.

With `C=CC(C)(O)CCC=C(C)C` (stereo not shown) [Linalool], the IC50 on CbuqOBP1 [1] was 14.5 µM.

In the case of `Oc1ccccc1` [Phenol], at CbuqOBP1 [1], the IC50 is 11.4 µM. Also, in the assay with C. buqueti adults, the attractant for adults result is “efficient attractants”.

Take `C=C(C)[C@H]1CC=C(C)CC1` [(+)-Limonene]: the IC50 at CbuqOBP1 [1] was determined as 18.8 µM.

As to `CCCC/C=C/C=C/C=O` [trans,trans-2,4-Nonadienal], the Ki at CbuqOBP1 [1] amounted to 22.4 µM. The IC50 at CbuqOBP1 [1] (setting [5]) is 24.3 µM.

The molecule `c1ccc2scnc2c1` [Benzothiazole] had an IC50 at CbuqOBP1 [1] of 12 µM. Further, the attractiveness to adults result in assay [2] and in assay [3] was “highly attractive” each time. The attractant for adults entry in the assay on C. buqueti adults is on record as “efficient attractants”.

In the case of `C=Cc1ccccc1` [Styrene], on CbuqOBP1 [1], the IC50 was found to be 22.1 µM.

With `C[C@@H]1CC[C@H]2C(C)(C)[C@H]3C[C@@]12CC[C@@]3(C)O` [Cedrol], on CbuqOBP1 [1], the IC50 turned out to be 40.3 µM.

For `c1ccc(Nc2cccc3ccccc23)cc1` [1-NPN, N-phenyl-1-naphthylamine], on CbuqOBP1 [4], the Kd amounted to 24.2 µM.
